In paper PMC11547513, “Design, Synthesis and Biological Activity Evaluation of β-Carboline Derivatives Containing Nitrogen Heterocycles” (Molecules, 2024):
Where two headings read alike, the source gives them in different places.

Tests used:
[1] = tested on: Hek-293T (human embryonic kidney cells); assay: MTT assay, in vitro cytotoxicity on normal Hek-293T; details: read-out: Inhibitory Activity/% at 10 μM, Hek-293T
Text: (§1) Cells were purchased from the Cell Bank of the Chinese Academy of Sciences (Kunming, China).

[2] = tested on: T47D (human breast cancer cell); assay: MTT assay, in vitro cytotoxicity on T47D; details: read-out: Inhibitory Activity/% at 10 μM, T47D
Text: as §1

[3] = tested on: PC-3 (human prostate cancer cell); assay: MTT assay, in vitro cytotoxicity on PC-3; details: 10 μM, average of three replicates, "/" means no anticancer activity; for inhibition at 10 µM: Homo sapiens
Text: as §1

[4] = tested on: K562 (human chronic myeloid leukemia cell); assay: MTT assay, in vitro cytotoxicity on K562; details: Homo sapiens, K562, read-out: Inhibitory Activity/% at 10 μM, K562
Text: as §1

[5] = tested on: A549 (human lung cancer cell); assay: MTT assay, in vitro cytotoxicity on A549; details: A549, read-out: Inhibitory Activity/% at 10 μM, A549
Text: as §1

[6] = read-out: Inhibitory Activity/% at 10 μM, PC-3, Table 1 (7 series)
[7] = read-out: Inhibitory Activity/% at 10 μM, PC-3, Table 2 (8 series)

Row | SMILES | melting point | inhibition at 10 µM [1] | inhibition at 10 µM [2] | inhibition at 10 µM [3, 6] | inhibition at 10 µM [4] | inhibition at 10 µM [5] | inhibition at 10 µM [3, 7] | Inhibitory Activity/% at 10 μM, PC-3 ([3]; Table 2 (8 series))
1 | COc1cc(-c2nc(-c3nnc(SCC(=O)Nc4ccc(F)cc4)o3)cc3c2[nH]c2ccccc23)cc(OC)c1OC [Compound 8k] | 235.8 to 237.4 °C | 29.6 ± 2.33% | 6.94 ± 3.38% | – | 33.5 ± 8.79% | 33.2 ± 0.45% | > 40% | 44.72 ± 1.82%
2 | COc1cc(-c2nc(-c3nnc(SCC(=O)N4CCN(c5ccc(F)cc5F)CC4)o3)cc3c2[nH]c2ccccc23)cc(OC)c1OC [Compound 8h] | 178.1 to 179.4 °C | 29.6 ± 3.04% | < 0% | – | 2.46 ± 1.78% | 17.9 ± 2.91% | 12.2 ± 1.13% | –
3 | COc1cc(-c2nc(-c3nnc(SCC(=O)N4CCN(c5ccc(F)cc5)CC4)o3)cc3c2[nH]c2ccccc23)cc(OC)c1OC [Compound 8d] | 156.8 to 158.1 °C | 36.9 ± 2.63% | < 0% | – | 8.62 ± 5.59% | 10.1 ± 4.44% | 17.9 ± 2.8% | –
4 | O=C(CSc1nnc(-c2cc3c(cn2)[nH]c2ccccc23)o1)N1CCOc2ccccc21 [Compound 7n] | 232.4 to 232.8 °C | 61.8 ± 1.57% | 47.8 ± 0.82% | 36 ± 3.68% | 35.1 ± 3.12% | 8.72 ± 2.57% | – | –
5 | COc1ccc(N2CCN(C(=O)CSc3nnc(-c4cc5c([nH]c6ccccc65)c(-c5cc(OC)c(OC)c(OC)c5)n4)o3)CC2)cc1 [Compound 8f] | 156.5 to 158.6 °C | 20.2 ± 4.34% | 6.91 ± 5.13% | – | 7.87 ± 5.82% | 13.2 ± 0.56% | 34.5 ± 0.68% | –
6 | O=C(CSc1nnc(-c2cc3c(cn2)[nH]c2ccccc23)o1)Nc1ccc(F)cc1 [Compound 7k] | 296.4 to 297.9 °C | 30.8 ± 2.59% | 47.5 ± 1.39% | 35.8 ± 4.09% | 12.2 ± 0.18% | 10.1 ± 6.19% | – | –
7 | COc1cc(-c2nc(-c3nnc(SCC(=O)N4CCOc5ccccc54)o3)cc3c2[nH]c2ccccc23)cc(OC)c1OC [Compound 8n] | 225.9 to 226.8 °C | 35.5 ± 1.75% | 25.6 ± 3.79% | – | 38.2 ± 3.73% | 7.62 ± 3.84% | 32 ± 1.17% | –
8 | COc1cc(-c2nc(-c3nnc(SCC(=O)N4CCN(c5ccc(Br)cc5)CC4)o3)cc3c2[nH]c2ccccc23)cc(OC)c1OC [Compound 8b] | 155.8 to 157.9 °C | 38.4 ± 3.85% | 10.6 ± 1.16% | – | 10.8 ± 2.32% | 5.03 ± 5.42% | 8.91 ± 5.34% | –

Further lines, with some results ahead:

Row | melting point | SMILES | inhibition at 10 µM [1] | inhibition at 10 µM [2] | inhibition at 10 µM [3, 6] | inhibition at 10 µM [4] | inhibition at 10 µM [5] | inhibition at 10 µM [3, 7] | Inhibitory Activity/% at 10 μM, PC-3 ([3]; Table 2 (8 series))
9 | 168.3 to 170.9 °C | O=C(CSc1nnc(-c2cc3c(cn2)[nH]c2ccccc23)o1)N1CCN(c2ccc(Cl)c(Cl)c2)CC1 [Compound 7a] | 18.6 ± 0.71% | 32.3 ± 3.36% | 29.58 ± 0.25% | 0.85 ± 1.01% | 0.72 ± 1.63% | – | –
10 | 275.4 to 277.7 °C | O=C(CSc1nnc(-c2cc3c(cn2)[nH]c2ccccc23)o1)N1CCN(c2ccc(Br)cc2)CC1 [Compound 7b] | 33.3 ± 0.8% | 42.6 ± 1.65% | 29.09 ± 0.27% | 8.98 ± 3.13% | 13.6 ± 7.88% | – | –
11 | 300.7 to 302.9 °C | O=C(CSc1nnc(-c2cc3c(cn2)[nH]c2ccccc23)o1)N1CCN(c2ccc(C(F)(F)F)cn2)CC1 [Compound 7r] | 0.74 ± 3.77% | 38.4 ± 5.85% | 44 ± 2.62% | 17.2 ± 2.35% | 3.03 ± 5.83% | – | –
12 | 212.6 to 213.3 °C | O=C(CSc1nnc(-c2cc3c(cn2)[nH]c2ccccc23)o1)N1CCN(c2ncccn2)CC1 [Compound 7g] | 34.1 ± 6.8% | 42.5 ± 3.19% | 14.8 ± 2.23% | 0.05 ± 2.99% | < 0% | – | –
13 | 228.3 to 229.6 °C | O=C(CSc1nnc(-c2cc3c(cn2)[nH]c2ccccc23)o1)N1CCOCC1 [Compound 7l] | 11.2 ± 7.91% | 19.3 ± 5.03% | 39.6 ± 5.06% | 9.28 ± 2.51% | 12.2 ± 6.14% | – | –
14 | 148.9 to 150.6 °C | O=C(CSc1nnc(-c2cc3c(cn2)[nH]c2ccccc23)o1)N1CCN(c2ccccc2)CC1 [Compound 7i] | 84.14 ± 0.79% | 54.2 ± 3.88% | 35.6 ± 1.89% | 23.6 ± 3.59% | 5.2 ± 7.21% | – | –
15 | 174.3 to 175.6 °C | CS(=O)(=O)N1CCN(C(=O)CSc2nnc(-c3cc4c(cn3)[nH]c3ccccc34)o2)CC1 [Compound 7m] | 29.5 ± 3.33% | 25.2 ± 4.1% | 20 ± 3.22% | 33 ± 1.83% | 14.7 ± 3.64% | – | –
16 | 163.9 to 165.8 °C | O=C(CSc1nnc(-c2cc3c(cn2)[nH]c2ccccc23)o1)N1CCN(c2ccc(O)cc2)CC1 [Compound 7c] | 47.3 ± 4.59% | 40.2 ± 0.9% | 22.7 ± 2.19% | 18.1 ± 2.63% | 16.8 ± 2.39% | – | –
17 | 158.8 to 161.4 °C | O=C(CSc1nnc(-c2cc3c(cn2)[nH]c2ccccc23)o1)N1CCN(C2CCCCC2)CC1 [Compound 7p] | 61.5 ± 3.24% | 50.7 ± 5.79% | 51.2 ± 3.11% | 8.68 ± 6.83% | 17 ± 2.1% | – | –
